{
  "source": "patent US10206900B2",
  "about": "“Treatments for fibrotic diseases” (MOR RESEARCH APPLICATIONS LTD., priority 2013, dated 2019)",
  "key": {"RPE cells": {"tested_on": "RPE cells", "assay": "α-SMA expression (immunostaining) upon TGF-β1 stimulation", "assay_type": "cell-based", "conditions": "5Z-7-oxozeaenol 1 μM pretreatment 1 hour, TGF-β1 2.5 ng/ml, serum-free", "procedure": "FIGS. 2A-2C TAK1 regulates RPE cells EMT phenotype upon TGF-β stimulation. FIG. 2A: RPE cells were serum-starved for 16 hours, pretreated with 5Z-7-oxozeaenol (1 μM) or left untreated for 1 hour. The cells were then treated with TGF-β1 (2.5 ng/ml) as described herein for 24 h and immunostained with α-SMA antibodies (red) and DAPI (blue). Representative photographs of three independent experiments. The histogram in the bottom panel represents quantification of α-SMA antibody pixel intensity. FIG. 2B: RPE cells were serum-starved for 16 hours, then treated with mitomycin C (10 ng/ml) for 3 h. Thereafter, pretreated with 5Z-7-oxozeaenol (1 μM) or Dimethyl sulfoxide (DMSO) for 1 hour. Following this process a scratch was performed in the cell monolayer and the serum free medium was supplemented with TGF-β1 (2.5 ng/ml) or left unsupplemented. Scratches were photo-documented at the indicated times (top panel) and their width was measured using Image-J software. […] Bars are Mean±SD. FIG. 2C: RPE cells were serum-starved for 16 hours then pretreated with 5Z-7-oxozeaenol (1 μM) or SB431542 (10 μM), or DMSO for 1 hour. […] Total MMP-9 activities were processed by gelatin zymography (top panel) and the band intensity values were calculated by Quantity One® 1-D analysis software. […] Data is expressed as the Mean±SD. […]"}, "p38": {"tested_on": "p38", "assay": "p38 phosphorylation by immuno-blot in RPE cells", "assay_type": "cell-based", "conditions": "1 μM for 1 hour then TGF-β 2.5 ng/ml", "procedure": "FIG. 4A-4C: Inhibition of TAK1 abolishes the activation of TGF-β cascades. FIG. 4A: Serum-starved RPE cells were pretreated with or without with 5Z-7-oxozeaenol (1 μM) for 1 hour and then with TGF-β (2.5 ng/ml) for the indicated times. Total protein extracts were analyzed by western blot using the indicated antibodies. […] FIG. 4B: Levels of phospho-Smad2/3 were quantified and normalized to total Smad2/3 FIG. 4C: Statistical analysis of p-p38 and p-Smad3 activation normalized to p38 and Smad3 respectively, with or without TGF-β stimulation. The histograms present results of 5 independent experiments. Statistics were computed using student t-test (Two tailed distribution equal variance). Data is expressed as the Mean±SD. RPE cells were treated with or without 5Z-7-oxozeaenol followed by TGF-β1 treatment and Smad2/3 phosphorylation patterns were examined by immuno-blots. […] Upon TGF-β1 stimulation, the phosphorylation of p38 increased, reaching a peak at 60 min (FIGS. 4A and C)."}, "c57Black mice": {"tested_on": "c57Black mice", "assay": "Dispase-induced PVR in mice (H&E histology)", "assay_type": "in vivo", "conditions": "treated 96 hour post-dispase, H&E 96 hours later", "procedure": "96 hour post-treatment, the mice were further treated with 5Z-7-oxozeaenol left untreated, and 96 hours later, mice were sacrificed, eyes were enucleated and stained with hematoxylin and eosin (H&E). […] As shown in the middle panel, dispase caused PVR, manifested by loss of normal cellular architecture of the retina, presence of numerous inflammatory cells and presence of RPE cells throughout all retinal layers compared to the control (left panel). As shown in the right panel, treatment with 5Z-7-oxozeaenol maintained the normal retinal structure and prevented the development of the fibrotic response. 7-8 week old c57Black mice were treated or left untreated with dispase to generate PVR in the mice. 96 hour post-treatment, the mice were treated with 5Z-7-oxozeaenol or left untreated, and 96 hour later, mice were sacrificed, eye were […] and stained with hematoxylin and eosin (H&E)."}},
  "data": [
    {"molecule": "COc1cc(O)c2c(c1)/C=C/C[C@H](O)[C@H](O)C(=O)/C=C\\C[C@H](C)OC2=O", "note": "[5Z-7-oxozeaenol]", "values": [
      {"measurement": "TGF-β1-stimulated α-SMA expression", "setting": "RPE cells", "value": "significantly attenuated"},
      {"measurement": "p38 activation (phosphorylation) upon TGF-β1 stimulation", "setting": "p38", "value": "abolished p38 activation"},
      {"measurement": "development of the fibrotic response / retinal structure (PVR)", "setting": "c57Black mice", "value": "prevents the development of the fibrotic response"}
    ]}
  ]
}
